Key:
Acetylcholinesterase = Acetylcholinesterase (Homo sapiens, UniProt P22303)
Cholinesterase = Cholinesterase (Homo sapiens, UniProt P06276)
Cholinesterase, sequence (P06276 whole entry): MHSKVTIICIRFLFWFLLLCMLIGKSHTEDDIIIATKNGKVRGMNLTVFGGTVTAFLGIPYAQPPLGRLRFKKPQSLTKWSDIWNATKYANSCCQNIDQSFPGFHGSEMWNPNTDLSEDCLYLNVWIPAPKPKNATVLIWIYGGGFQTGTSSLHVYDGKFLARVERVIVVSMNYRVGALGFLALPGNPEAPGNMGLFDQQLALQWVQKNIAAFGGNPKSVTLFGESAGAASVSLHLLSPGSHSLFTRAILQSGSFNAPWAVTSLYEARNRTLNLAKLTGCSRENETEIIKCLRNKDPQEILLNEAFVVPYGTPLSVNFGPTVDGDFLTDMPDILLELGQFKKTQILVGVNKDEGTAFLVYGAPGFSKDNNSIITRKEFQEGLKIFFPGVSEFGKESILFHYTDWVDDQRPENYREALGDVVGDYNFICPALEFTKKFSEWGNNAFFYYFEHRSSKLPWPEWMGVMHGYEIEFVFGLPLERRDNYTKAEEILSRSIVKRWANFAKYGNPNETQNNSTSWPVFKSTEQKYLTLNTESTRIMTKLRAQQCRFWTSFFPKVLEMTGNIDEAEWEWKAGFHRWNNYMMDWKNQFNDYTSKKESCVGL
Description: Inhibition of human BuChE

Acetylcholinesterase, sequence (P22303 whole entry): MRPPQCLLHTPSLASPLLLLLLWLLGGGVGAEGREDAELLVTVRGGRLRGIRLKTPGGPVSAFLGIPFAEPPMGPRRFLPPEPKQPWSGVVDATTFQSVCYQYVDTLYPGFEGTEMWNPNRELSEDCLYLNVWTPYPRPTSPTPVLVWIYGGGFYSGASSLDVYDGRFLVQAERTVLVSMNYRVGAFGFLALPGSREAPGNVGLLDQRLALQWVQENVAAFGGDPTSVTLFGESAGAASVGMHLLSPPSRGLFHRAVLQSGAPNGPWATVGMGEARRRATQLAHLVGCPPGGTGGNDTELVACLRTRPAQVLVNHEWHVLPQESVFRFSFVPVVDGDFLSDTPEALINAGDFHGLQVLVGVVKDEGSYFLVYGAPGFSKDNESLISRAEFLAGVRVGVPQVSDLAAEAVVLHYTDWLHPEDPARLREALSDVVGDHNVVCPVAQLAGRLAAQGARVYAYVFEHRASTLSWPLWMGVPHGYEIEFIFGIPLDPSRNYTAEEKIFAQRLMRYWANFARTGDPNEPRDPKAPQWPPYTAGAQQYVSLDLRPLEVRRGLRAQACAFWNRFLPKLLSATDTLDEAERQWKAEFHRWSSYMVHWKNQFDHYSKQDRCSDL

Row | Compound | Ki (Acetylcholinesterase) [nM] | Ki (Cholinesterase) [nM]
1 | C/C=C1\C2C=C(C)C[C@]1(N)CC(NCCCCCCCNc1c3c(nc4ccccc14)CCCC3)C2(C)C (stereo not given in full) | 16.5 | 20.8
2 | C/C=C1\C2C=C(C)C[C@]1(N)CC(NCCCCCCCNc1c3c(nc4ccccc14)CCCC3)C2 (stereo not given in full) | 15.7 | 30.8
3 | C/C=C1\[C@H]2C=C(C)C[C@]1(N)c1ccc(=O)[nH]c1C2 [HUPERZINE A] | – | > 1000
